Source: US6958162B2, “Herbal composition for treating allergic disorders and method for making the same” (Industrial Technology Research Institute, priority 2003, dated 2005)

Experiments:
pulmonary function = test: Pulmonary function determination (barometric plethysmograph, methacholine) in Der p 2 allergic mice; type: in vivo, Balb/c mice; settings: DEX 1 μg/mouse/day, TCM 20 mg/mouse/day; result in words
Method: Male Balb/c mice were obtained from the National Laboratory Breeding Research Center in Taiwan and were raised in a specific pathogen-free environment. These mice used were between 6 and 8 weeks of age. Groups of six mice were caged separately according to their treatments. Recombinant Dermatophoides pteronyssinus group 2 (Der p 2) was prepared from Dr. Tsai's lab and test drugs, Traditional Chinese Medicine A (TCM-A, or 1217A in FIGS. 7, 8, 9, and 10) and Traditional Chinese Medicine B (TCM-B, or 1217B in FIGS. 7, 8, 9, and 10) were prepared from the Biomedical Engineering Center Industrial Technology Research Institute, Hsinchu, Taiwan. […]
Each mouse was placed inside a barometric plethysmograph (Buxco Electronics, Troy, N.Y.). […] The pressure signal was amplified, digitized via an A/D convert card, and sent to a computer with a BioSystem XA program (Buxco Electronics, Troy, N.Y.), which sampled and calculated desired respiratory parameters. […]
An aerosol was generated by placing a 5 ml saline or methacholine (1.56 to 50.00 mg/ml) solution in the cup of an ultrasonic nebulizer (DeVilbiss, Somerset, Pa.) and it was delivered via a connecting tube and a three-way connector to the animal chamber of the plethysmograph. […] At first, each mouse inhaled the saline aerosol for 3 mins and then the respiratory parameters were measured for 3 mins. […]

[1] = system: inflammatory cells in the BAL fluids; test: Der p 2 induced allergic airway inflammation in mice: cell counts in BAL fluid; type: in vivo, Balb/c mice; settings: DEX 1 μg/mouse/day, mean ± SEM
Method: Male Balb/c mice were obtained from the National Laboratory Breeding Research Center in Taiwan and were raised in a specific pathogen-free environment. These mice used were between 6 and 8 weeks of age. Groups of six mice were caged separately according to their treatments. Recombinant Dermatophoides pteronyssinus group 2 (Der p 2) was prepared from Dr. Tsai's lab and test drugs, Traditional Chinese Medicine A (TCM-A, or 1217A in FIGS. 7, 8, 9, and 10) and Traditional Chinese Medicine B (TCM-B, or 1217B in FIGS. 7, 8, 9, and 10) were prepared from the Biomedical Engineering Center Industrial Technology Research Institute, Hsinchu, Taiwan.
Mice were immunized by intraperitoneal (i.p.) injection of 1 μg/0.1 ml Der p 2 emulsified in 4 μg/0.062 ml aluminum hydroxide Al(OH)3 (Whitehall Lab Ltd, Punchbowel, Australia) on day 0 and day 7. After immunization, mice were fed with TCM for 3 weeks. Mice of different groups were fed with Dexamethasome (1 μg/mouse/day), TCM-A (20 mg/mouse/day), TCM-B (20 mg/mouse/day) or normal saline 500 μl/mouse/day. On days 28 and 35, mice were lightly anesthetized with an i.p. injection of 60 mg/kg of sodium pentobarbital (Sigma Chemical Co., St. Louis, Mo., USA) and intratracheally (i.t.) inoculated with 1 μg/50 μl of Der p 2. Twenty-four hours after the second i.t. inoculation, mice were sacrificed after pulmonary function measurement.
After pulmonary function measurement, bronchoalveolar lavage (BAL) was performed with the following procedure. Two separate injections of 1 ml sterile endotoxin-free saline were given into the lung via the trachea of each mouse. Approximately 1.8 ml of the bronchoalveolar lavage (BAL) fluid was recovered constantly. The BAL fluids were aspirated and stored at −70° C. until assay. After total leukocyte counting, a cytospin preparation of […] BAL fluid was stained with Liu stain (Tonyar Diagnostic Inc, Taipei County, Taiwan) and differential counts were performed on 200 cells. […] Blood samples were obtained via the orbital sinus and sera were collected and stored at −70° C. until assay.

[2] = system: IL-4 released from EL-4 cells; test: Measurement of IL-4 released from stimulated EL-4 cells (ELISA); type: cell-based, mouse; settings: FIG. 3b, 3c
Method: During the day of experiment, the herbal drug was diluted in the cell culture medium to the end point (0.5 μg/ml, 5 μg/ml, or as appropriate). The ability of each herbal composition and its mixtures to affect the production of IL-4, TNF-alpha, and cLT was measured.
The mouse thymoma cell lines, EL-4 were incubated with each composition or mixture for 2 hours before it was stimulated by 100 ng/ml of A23187 and PMA. Samples of tissue culture medium were collected at the end of 24 hours incubation and stored at −70 degrees C. prior to assay.
Cytokine measurements were carried out using the commercially available ELISA assay kit (R&D Systems, Minneapolis, Minn.) in accordance with the supplier's protocols. In brief, 100 μl of the assay buffer supplied was added to each of the wells of a micro-titer plate containing pre-bound anti-cytokine antibody, followed by 100 μl of a standard or sample solution, diluted appropriately for the concentration range measured. All incubations were carried out at 37 degrees C. After two hours incubation, the plates were washed four times with a wash buffer, and the second antibody, Detection Antibody, was added with 1:200 in Reagent Diluent to each well. The plates were sealed and incubated for 2 hours. […] Optical sensitivity was determined at 450 nm using a Molecular Devices of micro-titer plate reader.

SMILES	pulmonary function of allergic animals (methacholine from low dose to high dose) (pulmonary function)	Differential Counts, Eos ([1]; BAL fluid, TCM 20 mg/mouse/day)	Differential Counts, Lym ([1]; BAL fluid, TCM 20 mg/mouse/day)	Differential Counts, Macro ([1]; BAL fluid, TCM 20 mg/mouse/day)	Differential Counts, Neu ([1]; BAL fluid, TCM 20 mg/mouse/day)	Total cell NO in BAL fluid ([1]; fed 3 weeks, TCM-A or TCM-B 20 mg/mouse/day)	effect on IL-4 released from EL-4 cells (excipients and powder with excipients) [2]
C[C@@H]1C[C@H]2[C@@H]3CCC4=CC(=O)C=C[C@]4(C)[C@@]3(F)[C@@H](O)C[C@]2(C)[C@@]1(O)C(=O)CO [DEX, Dexamethasone]	can improve the pulmonary function	3.2 ± 0.4 ×10^4/ml	9.4 ± 1.5 ×10^4/ml	29.2 ± 4.4 ×10^4/ml	6.6 ± 1.0 ×10^4/ml	46.4 ± 2.2 ×10^4/ml	–
O=P([O-])([O-])[O-].O=P([O-])([O-])[O-].[Ca+2].[Ca+2].[Ca+2] [Ca3(PO4)2]	–	–	–	–	–	–	do not have any effect
